# Biological target: human P2X3 receptor (Homo sapiens (Human), UniProt P56373)
# Assay: Evaluation of human P2X3 receptor inhibitory activity (Test Example 1-1, FDSS 3000, 96-well, 50 nM ATP)
# Format: cell-based
# Conditions: human P2X3 receptor in C6BU-1 cells; Test Example 1-1 (compounds I-001 to I-300)
# Description: Stably expressing cell line (C6BU-1 cell transfected with human P2X3 receptor gene (GenBank accession number Y07683) was used. The cells were seeded in a 96-well microtiter plate at a concentration of 8000 cells/well and cultured in the medium (7.0% fetal bovine serum, 7.0% horse serum, 1% antibiotic and antifungal in DMEM) for one day at 37° C. under 5% carbon dioxide atmosphere. The medium was replaced with 4 μM Fluo-3-AM solution (20 mM HEPES, 137 mM NaCl, 5.27 mM KCl, 0.9 mM MgCl2, 1.26 mM CaCl2, 5.6 mM D-glucose, 2.5 mM probenecid, 1% BSA, and 0.08% Pluronic F-127, pH 7.5) and incubated at 37° C. under 5% dioxide carbon atmosphere for one hour. The plate was washed with washing buffer (20 mM HEPES, 137 mM NaCl, 5.27 mM KCl, 0.9 mM MgCl2, 1.26 mM CaCl2, 5.6 mM D-glucose, 2.5 mM probenecid, pH7.5), and each well was added with 40 μL of this buffer. The plate was placed in High-Throughput Screening System. FDSS 3000 (Hamamatsu Photonics K.K.). Measurement of fluorescence intensity by FDSS 3000 was started, and 40 μL of DMSO solutions containing different concentrations of the test compound as prepared by dilution with dilution buffer (20 mM HEPES, 137 mM NaCl, 5.27 mM KCl, 0.9 mM MgCl2, 1.26 mM CaCl2, 5.68 mM D-glucose, 2.5 mM probenecid, 0.1% Pluronic F-127, pH7.5) were dispensed to each well through the built-in automatic dispenser. Five minutes after, 50 nM ATP solution (50 μL) prepared by dilution with the dilution buffer was dispensed through the built-in automatic dispenser, and the measurement of fluorescence intensity was continued for 4 min. For each well, the specific maximum fluorescence intensity was calculated as the ratio of the maximum fluorescence intensity after addition of the ATP solution to the fluorescence intensity at the starting of the measurement. The 50% inhibitory concentration (IC50) was calculated under the assumption that the specific maximum fluorescence intensity without test compound is 0% inhibition and that the specific maximum fluorescence intensity when the dilution buffer was added in place of ATP solution is 100% inhibition, to evaluate the inhibitory activity of the test compound. FDSS software (Hamamatsu Photonics K.K.) was used for calculation of the specific maximum fluorescence intensity. IC50 was calculated using Microsoft Excel (Microsoft Corporation) and XLfit (idbs Ltd.)
# The data of the compounds I-001 to I-300 are the results by the method mentioned in Test Example 1-1, and the data of the compounds I-301 to I-483 are the results by the method mentioned in Test Example 1-2.
# human P2X3 receptor, sequence (P56373 whole entry): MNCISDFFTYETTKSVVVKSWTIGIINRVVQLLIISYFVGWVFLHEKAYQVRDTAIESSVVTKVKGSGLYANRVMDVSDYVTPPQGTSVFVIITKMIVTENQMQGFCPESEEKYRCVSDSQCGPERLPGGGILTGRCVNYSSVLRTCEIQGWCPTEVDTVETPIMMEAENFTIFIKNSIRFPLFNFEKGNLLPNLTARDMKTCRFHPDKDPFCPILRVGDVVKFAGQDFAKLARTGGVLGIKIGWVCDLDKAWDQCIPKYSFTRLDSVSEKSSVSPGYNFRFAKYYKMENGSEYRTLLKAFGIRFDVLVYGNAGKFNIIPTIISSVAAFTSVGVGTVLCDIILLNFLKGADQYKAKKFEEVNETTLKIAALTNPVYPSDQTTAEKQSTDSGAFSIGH
row,Structure (SMILES),IC50
1,CCC(=O)Nc1c[nH]/c(=N\c2ccc(Oc3cccc(C(N)=O)n3)cc2)n(Cc2ccc(Cl)cc2)c1=O [Compound I-093],9 nM
2,COc1cccc(Oc2ccc(/N=c3\[nH]cc(C(N)=O)c(=O)n3Cc3ccc(Cl)cc3)cc2C)n1 [Compound I-140],99 nM
3,CNC(=O)c1c[nH]/c(=N\c2ccc(Oc3nc(C)ns3)cc2)n(Cc2ccc(Cl)cc2)c1=O [Compound I-257],41 nM
4,Cc1ccc(Cn2cc(C(=O)NC3CCOCC3)c(=O)nc2Nc2ccc(Oc3cccc(F)n3)cc2)cc1 [Compound I-282],6 nM
5,O=C(NC1CCOCC1)c1cn(Cc2ccc(Cl)cc2)c(Nc2ccc(Oc3ccon3)cc2)nc1=O [Compound I-175],37 nM
6,CCn1c(=O)cc(Nc2ccc(Oc3cccc(C#N)n3)c(F)c2)n(Cc2ccc(Cl)cc2)c1=O [Compound I-011],2 nM
7,O=C(Nc1cnc(Nc2ccc3nc(C(F)F)sc3c2)n(Cc2ccc(Cl)cc2)c1=O)C1CCOCC1 [Compound I-300],15 nM
8,N#Cc1cc(Oc2ccc(Nc3nc(=O)c(C(=O)NC4CCOCC4)cn3Cc3ccc(Cl)cc3)cc2)ccn1 [Compound I-227],6 nM
9,CCc1c[nH]/c(=N\c2ccc(Oc3cncc(C(=O)O)c3)cc2)n(Cc2ccc(Cl)cc2)c1=O [Compound I-170],54 nM
10,NC(=O)c1c[nH]/c(=N\c2ccc(Oc3ccon3)cc2)n(Cc2ccc(Cl)cc2)c1=O [Compound I-100],32 nM
11,NC(=O)c1cccc(Oc2ccc(Nc3cc(=O)[nH]c(=O)n3Cc3ccc(Cl)cc3)cc2)n1 [Compound I-066],81 nM
12,CCC(=O)Nc1c[nH]/c(=N\c2ccc(Oc3ccon3)cc2)n(Cc2ccc(Cl)cc2)c1=O [Compound I-088],49 nM
13,CCOC(=O)c1c[nH]/c(=N\c2ccc(Oc3cccc(C#N)n3)cc2)n(Cc2ccc(Cl)cc2)c1=O [Compound I-153],21 nM
14,O=c1cc[nH]/c(=N\c2ccc(Oc3ccc(F)cn3)cc2)n1Cc1ccc(Cl)cc1 [Compound I-152],291 nM
15,CCn1c(=O)cc(Nc2ccc(Oc3ccc(C(=O)O)nn3)cc2)n(Cc2ccc(Cl)cc2)c1=O [Compound I-174],36 nM
16,CCn1c(=O)cc(Nc2ccc(Oc3ccc(C(=O)OC)cc3)cn2)n(Cc2ccc(Cl)cc2)c1=O [Compound I-052],21 nM
17,CCn1c(=O)cc(Nc2ccc(Oc3ccc(C(=O)OC)nn3)cc2)n(Cc2ccc(Cl)cc2)c1=O [Compound I-173],4 nM
18,"CCn1c(=O)cc(Nc2ccc(Oc3cccc(C(=O)O)c3)cc2)n(Cc2ccc(Cl)cc2)c1=O [Compound I-023, 1-(4-chlorobenzyl)-3-ethyl-6-[4-(3-hydroxycarbonylphenoxy)phenylamino]pyrimidin-2,4(1H,3H)-dione]",3 nM
19,CN(C)C(=O)CNC(=O)c1cn(Cc2ccc(Cl)cc2)c(Nc2ccc(Oc3ccc(F)cn3)cc2)nc1=O [Compound I-297],21 nM

row,Structure (SMILES),IC50
1,CCc1oc2ccc(/N=c3\[nH]cc(C=NOC)c(=O)n3Cc3ccc(Cl)cc3)cc2c1C [Compound I-058],223 nM
2,NC(=O)c1cccc(Oc2ccc(/N=c3\[nH]cc(C(N)=O)c(=O)n3Cc3ccc(Cl)cc3)cc2)n1 [Compound I-178],14 nM
3,CCN/C(=N\C#N)Nc1c[nH]/c(=N\c2ccc(Oc3ccon3)cc2)n(Cc2ccc(Cl)cc2)c1=O [Compound I-251],118 nM
4,CCOC(=O)c1cccc(Oc2ccc(Nc3cc(=O)n(CC)c(=O)n3Cc3ccc(Cl)cc3)cn2)c1 [Compound I-060],160 nM
5,Cc1cc(C(=O)Nc2c[nH]/c(=N\c3ccc(Oc4ccon4)cc3)n(Cc3ccc(Cl)cc3)c2=O)on1 [Compound I-255],147 nM
6,C[C@@H](Cn1c(=O)cc(Nc2ccc(Oc3ccccc3)cc2)n(Cc2ccc(Cl)cc2)c1=O)C(=O)O [Compound I-117],26 nM
7,CCc1c[nH]/c(=N\c2ccc(Oc3cccc(C#N)n3)c(C)c2)n(Cc2ccc(Cl)cc2)c1=O [Compound I-130],32 nM
8,CCCn1c(=O)cc(Nc2ccc(Oc3cccc(C(=O)O)c3)cc2)n(Cc2ccc(Cl)cc2)c1=O [Compound I-169],11 nM
9,CCn1c(=O)cc(Nc2ccc(Oc3ccc(C(=O)OC)cc3)nc2)n(Cc2ccc(Cl)cc2)c1=O [Compound I-061],65 nM
10,CCn1c(=O)cc(Nc2cnc(Oc3cccc(C(N)=O)c3)cn2)n(Cc2ccc(Cl)cc2)c1=O [Compound I-076],432 nM
11,CCCn1c(=O)cc(Nc2ccc(Oc3cccc(C#N)n3)cn2)n(Cc2ccc(Cl)cc2)c1=O [Compound I-171],21 nM
12,CCc1oc2ccc(/N=c3\[nH]cc(CC(N)=O)c(=O)n3Cc3ccc(Cl)cc3)cc2c1C [Compound I-084],103 nM
13,CCC(=O)Nc1c[nH]/c(=N\c2ccc(Oc3ccnc(C(N)=O)c3)cc2)n(Cc2ccc(Cl)cc2)c1=O [Compound I-106],7 nM
14,O=c1c(-c2cccnc2O)c[nH]/c(=N\c2ccc(Oc3ccon3)cc2)n1Cc1ccc(Cl)cc1 [Compound I-194],658 nM
15,CC(=O)N(C)c1c[nH]/c(=N\c2ccc(Oc3cccc(C#N)n3)cc2)n(Cc2ccc(Cl)cc2)c1=O [Compound I-197],45 nM
16,CCn1c(=O)cc(Nc2ccc(Oc3cccc(C(N)=O)n3)cc2)n(Cc2ccc(Cl)cc2)c1=O [Compound I-025],6 nM
17,Cc1nsc(Oc2ccc(/N=c3\[nH]cc(C(=O)N(C)C)c(=O)n3Cc3ccc(Cl)cc3)cc2)n1 [Compound I-221],65 nM
18,CCc1oc2ccc(Nc3ncc(C(=O)NCCO)c(=O)n3Cc3ccc(Cl)cc3)cc2c1C [Compound I-032],34 nM
19,N#Cc1c[nH]/c(=N\c2ccc(Oc3ccc(F)cn3)cc2)n(Cc2ccc(Cl)cc2)c1=O [Compound I-261],498 nM

row,Structure (SMILES),IC50
1,COc1ccc(-c2c[nH]/c(=N\c3ccc(Oc4ccon4)cc3)n(Cc3ccc(Cl)cc3)c2=O)cn1 [Compound I-204],198 nM
2,O=C(Nc1c[nH]/c(=N\c2ccc(Oc3ccon3)cc2)n(Cc2ccc(Cl)cc2)c1=O)C1COC1 [Compound I-184],14 nM
3,O=C(Nc1c[nH]/c(=N\c2ccc(Oc3ccon3)cc2)n(Cc2ccc(Cl)cn2)c1=O)C1CCOCC1 [Compound I-275],51 nM
4,O=C(Nc1c[nH]/c(=N\c2ccc(Oc3ccon3)cc2)n(Cc2ccc(Cl)cc2)c1=O)c1cocn1 [Compound I-268],85 nM
5,CCn1c(=O)cc(Nc2ccc(Oc3cccc(C(N)=O)c3)c(C)n2)n(Cc2ccc(Cl)cc2)c1=O [Compound I-260],36 nM
6,O=C(Nc1c[nH]/c(=N\c2ccc(Oc3ccon3)cc2)n(Cc2ccc(Cl)cc2)c1=O)c1ccccc1 [Compound I-253],61 nM
7,CCn1c(=O)cc(Nc2ccc(Oc3nc(C)c(C(=O)O)s3)cc2)n(Cc2ccc(Cl)cc2)c1=O [Compound I-041],3 nM
8,NC(=O)c1ccc(Oc2ccc(Nc3nc(=O)c(C(=O)NC4CCOCC4)cn3Cc3ccc(Cl)cc3)cc2)cn1 [Compound I-200],10 nM
9,CCc1oc2ccc(/N=c3\[nH]cc(CO)c(=O)n3Cc3ccc(Cl)cc3)cc2c1C [Compound I-046],278 nM
10,CCC(=O)N(C)c1c[nH]/c(=N\c2ccc(Oc3cccc(C#N)n3)cc2)n(Cc2ccc(Cl)cc2)c1=O [Compound I-198],12 nM
11,O=c1c(NC(=O)[C@H]2C[C@@H](F)C2)c[nH]/c(=N\c2ccc(Oc3ccon3)cc2)n1Cc1ccc(Cl)cc1 [Compound I-219],14 nM
12,O=C(Nc1c[nH]/c(=N\c2ccc(Oc3ccon3)cc2)n(Cc2ccc(Cl)cc2)c1=O)c1cn[nH]c1 [Compound I-235],225 nM
13,CCn1c(=O)cc(Nc2ccc(Oc3cccc(C#N)n3)cn2)n(Cc2ccc(Cl)cc2)c1=O [Compound I-124],19 nM
14,Cc1cc(Oc2ccc(/N=c3\[nH]cc(NC(=O)C4CCOCC4)c(=O)n3Cc3ccc(Cl)cc3)cc2F)no1 [Compound I-249],6 nM
15,O=C(O)c1c[nH]/c(=N\c2ccc(Oc3ccc(F)cn3)c(F)c2)n(Cc2ccc(Cl)cc2)c1=O [Compound I-207],252 nM
16,CCOC(=O)c1c[nH]/c(=N\c2ccc(Oc3ncccc3F)cc2)n(Cc2ccc(Cl)cc2)c1=O [Compound I-107],29 nM
17,O=c1c(-c2ccccn2)c[nH]/c(=N\c2ccc(Oc3ccon3)cc2)n1Cc1ccc(Cl)cc1 [Compound I-272],211 nM
18,COC(=O)[C@@H](C)Cn1c(=O)cc(Nc2ccc(Oc3cccc(C#N)n3)c(F)c2)n(Cc2ccc(Cl)cc2)c1=O [Compound I-122],3 nM

# From US9550763B2, “Heterocyclic ring and carbocyclic derivative” (Shionogi & Co., Ltd., priority 2012, dated 2017)
